By IC50 is commonly meant the point on the concentration scale where inhibition reaches its midpoint. One may read the Kd as a measure of binding affinity in units of concentration. A high value points to weaker binding. As a reminder, the inhibition is the change of the read-out against control, counted positive when it falls.

One assay concerns EB-3. Put plainly: Cytotoxicity against human EB-3 cells measured after 8 days. Particulars: EB-3, 192 h. The format is functional, cell-based.
Assay [1] is described as follows: Cytotoxicity against human MOLM16 cells measured after 8 days. The conditions noted are these: MOLM16, 192 h. The class given is functional, cell-based, MOLM-16.
The test system of the next assay is NCI-H1666. The assay is described as follows: Cytotoxicity against human NCI-H1666 cells measured after 8 days. The format is functional, cell-based. The conditions noted are these: NCI-H1666, 192 h.
Another assay deals with NCI-H1299. The assay is described as follows: Cytotoxicity against human NCI-H1299 cells measured after 8 days. The conditions noted are these: NCI-H1299, 192 h. The format is functional, cell-based.
Another assay deals with NCI-H2122. Put plainly: Cytotoxicity against human NCI-H2122 cells measured after 8 days. The format is functional, cell-based. Particulars: NCI-H2122, 192 h.
The subject of the next assay is SU-DHL-1. Put plainly: Cytotoxicity against human SU-DHL-1 cells measured after 8 days. The class given is functional, cell-based. The conditions noted are these: SU-DHL-1, 192 h.
The subject of a further assay is AU565. The assay is described as follows: Cytotoxicity against human AU565 cells measured after 8 days. The class given is functional, cell-based. Particulars: AU565, 192 h.
The test system of the next assay is LS-1034. The assay is described as follows: Cytotoxicity against human LS1034 cells measured after 8 days. The class given is functional, cell-based. The conditions noted are these: LS-1034, 192 h.
A further assay has as its system GP5d. Put plainly: Cytotoxicity against human GP5d cells measured after 8 days. The format is functional, cell-based. Particulars: 192 h.
Another assay concerns LNCaP. Put plainly: Cytotoxicity against human LNCaP clone FGC cells measured after 8 days. The class given is functional, cell-based. The conditions noted are these: 192 h.
The next assay has as its system HCT-116. The assay is described as follows: Cytotoxicity against human HCT-116 cells measured after 8 days. The format is functional, cell-based. Particulars: HCT-116, 192 h.
A further assay deals with SNU-C1. Put plainly: Cytotoxicity against human SNU-C1 cells measured after 8 days. The format is functional, cell-based. The conditions noted are these: SNU-C1, 192 h.
For a further assay, the system named is HCC44. Put plainly: Cytotoxicity against human HCC44 cells measured after 8 days. The class given is functional, cell-based. Particulars: HCC44, 192 h.
In a further assay the test system is HCC827. Put plainly: Cytotoxicity against human HCC827 cells measured after 8 days. The format is functional, cell-based. Particulars: HCC827, 192 h.
Assay [2] deals with T1, ATPase family AAA domain-containing protein 2B (Homo sapiens, UniProt Q9ULI0).
T1 sequence (Q9ULI0 whole entry): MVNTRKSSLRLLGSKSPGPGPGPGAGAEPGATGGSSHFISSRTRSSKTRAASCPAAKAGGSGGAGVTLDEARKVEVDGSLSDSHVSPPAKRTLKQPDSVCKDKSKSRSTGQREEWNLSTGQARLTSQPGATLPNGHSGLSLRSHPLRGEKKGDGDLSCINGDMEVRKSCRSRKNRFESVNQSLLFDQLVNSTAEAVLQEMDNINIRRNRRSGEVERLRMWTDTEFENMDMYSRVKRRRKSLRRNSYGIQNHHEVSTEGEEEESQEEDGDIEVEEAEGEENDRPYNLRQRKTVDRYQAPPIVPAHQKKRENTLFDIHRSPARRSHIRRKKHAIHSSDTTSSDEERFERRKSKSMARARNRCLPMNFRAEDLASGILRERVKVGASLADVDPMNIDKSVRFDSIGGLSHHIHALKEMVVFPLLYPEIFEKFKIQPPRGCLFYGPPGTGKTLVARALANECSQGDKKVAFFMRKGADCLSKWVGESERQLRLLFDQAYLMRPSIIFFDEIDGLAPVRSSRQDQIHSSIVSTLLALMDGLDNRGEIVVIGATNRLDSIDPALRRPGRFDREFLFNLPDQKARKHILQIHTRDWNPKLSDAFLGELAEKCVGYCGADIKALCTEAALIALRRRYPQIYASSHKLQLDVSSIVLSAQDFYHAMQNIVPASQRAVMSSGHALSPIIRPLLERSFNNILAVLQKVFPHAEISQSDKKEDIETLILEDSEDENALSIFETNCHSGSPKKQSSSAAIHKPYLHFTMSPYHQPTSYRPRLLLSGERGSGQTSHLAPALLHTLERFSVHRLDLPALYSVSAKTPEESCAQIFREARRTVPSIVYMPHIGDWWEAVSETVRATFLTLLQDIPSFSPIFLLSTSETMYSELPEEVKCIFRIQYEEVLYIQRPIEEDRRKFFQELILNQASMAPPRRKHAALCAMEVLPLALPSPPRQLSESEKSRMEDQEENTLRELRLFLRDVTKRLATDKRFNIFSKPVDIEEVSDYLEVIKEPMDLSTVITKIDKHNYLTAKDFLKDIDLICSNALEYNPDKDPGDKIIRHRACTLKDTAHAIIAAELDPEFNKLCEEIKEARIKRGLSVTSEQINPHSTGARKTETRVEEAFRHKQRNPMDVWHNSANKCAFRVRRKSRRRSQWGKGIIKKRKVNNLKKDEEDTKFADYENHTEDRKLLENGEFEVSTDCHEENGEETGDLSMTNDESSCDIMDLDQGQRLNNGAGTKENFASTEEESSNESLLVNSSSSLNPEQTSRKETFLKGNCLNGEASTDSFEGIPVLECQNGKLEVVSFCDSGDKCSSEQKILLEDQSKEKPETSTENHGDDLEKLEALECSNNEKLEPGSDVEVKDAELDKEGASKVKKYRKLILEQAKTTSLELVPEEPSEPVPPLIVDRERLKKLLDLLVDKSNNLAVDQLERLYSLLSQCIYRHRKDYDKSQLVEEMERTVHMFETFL
The assay is described as follows: Binding affinity to human partial length ATAD2B (Q955 to R1082 residues) expressed in bacterial expression system by BROMOscan assay.

Assay [3] has as its target Chromatin remodeling regulator CECR2 (Homo sapiens, UniProt Q9BXF3). The assay is described as follows: Binding affinity to human partial length CECR2 (P423 to D543 residues) expressed in bacterial expression system by BROMOscan assay.
Assay [4] concerns the target Cyclin-dependent kinase 5/CDK5 activator 1 (Homo sapiens) (UniProt Q00535+Q15078). The assay is described as follows: Inhibition of CDK5/p25 (unknown origin) at 1 uM relative to control. The format is protein-complex assay.
The target in assay [5] is Serine/threonine-protein kinase SIK2 (Homo sapiens) (UniProt Q9H0K1). The assay is described as follows: Inhibition of SIK2 (unknown origin) at 1 uM relative to control.
The target of assay [6] is Tyrosine-protein kinase Yes (Homo sapiens) (UniProt P07947). Put plainly: Inhibition of Yes (unknown origin) at 1 uM relative to control.
For assay [7], the target named is T2, Muscarinic acetylcholine receptor M1 (Homo sapiens) (UniProt P11229).
T2 sequence (whole entry): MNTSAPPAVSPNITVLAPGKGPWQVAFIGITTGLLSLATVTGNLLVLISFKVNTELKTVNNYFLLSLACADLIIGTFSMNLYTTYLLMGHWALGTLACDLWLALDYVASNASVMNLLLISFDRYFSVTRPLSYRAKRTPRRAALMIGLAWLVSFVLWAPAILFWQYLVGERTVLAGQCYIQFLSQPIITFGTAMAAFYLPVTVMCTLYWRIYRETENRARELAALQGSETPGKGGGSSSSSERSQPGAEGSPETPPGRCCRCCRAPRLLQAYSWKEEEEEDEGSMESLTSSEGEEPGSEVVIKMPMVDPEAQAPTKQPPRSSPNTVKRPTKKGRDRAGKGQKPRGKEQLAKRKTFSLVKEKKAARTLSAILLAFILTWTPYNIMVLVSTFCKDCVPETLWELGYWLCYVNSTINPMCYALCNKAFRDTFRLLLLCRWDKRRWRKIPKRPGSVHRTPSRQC
Put plainly: Displacement of [125I]pirenzepine from human recombinant M1 receptor at 10 uM after 60 mins by scintillation counting analysis relative to control.

Chain of Tyrosine-protein kinase Yes (Homo sapiens) (P07947 2-543 limits assumed): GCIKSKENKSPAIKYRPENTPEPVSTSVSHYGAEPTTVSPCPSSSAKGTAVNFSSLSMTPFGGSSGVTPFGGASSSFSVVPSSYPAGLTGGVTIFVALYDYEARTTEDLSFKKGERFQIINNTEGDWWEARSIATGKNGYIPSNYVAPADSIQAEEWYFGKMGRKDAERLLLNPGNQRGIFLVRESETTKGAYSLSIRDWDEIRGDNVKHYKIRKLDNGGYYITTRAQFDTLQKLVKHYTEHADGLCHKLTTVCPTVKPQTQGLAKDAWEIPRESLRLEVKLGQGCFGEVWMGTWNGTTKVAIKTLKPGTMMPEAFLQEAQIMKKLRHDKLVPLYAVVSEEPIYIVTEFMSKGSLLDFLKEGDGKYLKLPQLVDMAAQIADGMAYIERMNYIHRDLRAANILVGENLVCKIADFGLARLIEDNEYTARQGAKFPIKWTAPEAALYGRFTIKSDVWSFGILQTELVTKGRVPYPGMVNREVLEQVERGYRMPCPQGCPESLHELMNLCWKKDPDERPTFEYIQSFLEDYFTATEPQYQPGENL
Chain of Chromatin remodeling regulator CECR2 (Q9BXF3 whole entry, the tested form may be a part): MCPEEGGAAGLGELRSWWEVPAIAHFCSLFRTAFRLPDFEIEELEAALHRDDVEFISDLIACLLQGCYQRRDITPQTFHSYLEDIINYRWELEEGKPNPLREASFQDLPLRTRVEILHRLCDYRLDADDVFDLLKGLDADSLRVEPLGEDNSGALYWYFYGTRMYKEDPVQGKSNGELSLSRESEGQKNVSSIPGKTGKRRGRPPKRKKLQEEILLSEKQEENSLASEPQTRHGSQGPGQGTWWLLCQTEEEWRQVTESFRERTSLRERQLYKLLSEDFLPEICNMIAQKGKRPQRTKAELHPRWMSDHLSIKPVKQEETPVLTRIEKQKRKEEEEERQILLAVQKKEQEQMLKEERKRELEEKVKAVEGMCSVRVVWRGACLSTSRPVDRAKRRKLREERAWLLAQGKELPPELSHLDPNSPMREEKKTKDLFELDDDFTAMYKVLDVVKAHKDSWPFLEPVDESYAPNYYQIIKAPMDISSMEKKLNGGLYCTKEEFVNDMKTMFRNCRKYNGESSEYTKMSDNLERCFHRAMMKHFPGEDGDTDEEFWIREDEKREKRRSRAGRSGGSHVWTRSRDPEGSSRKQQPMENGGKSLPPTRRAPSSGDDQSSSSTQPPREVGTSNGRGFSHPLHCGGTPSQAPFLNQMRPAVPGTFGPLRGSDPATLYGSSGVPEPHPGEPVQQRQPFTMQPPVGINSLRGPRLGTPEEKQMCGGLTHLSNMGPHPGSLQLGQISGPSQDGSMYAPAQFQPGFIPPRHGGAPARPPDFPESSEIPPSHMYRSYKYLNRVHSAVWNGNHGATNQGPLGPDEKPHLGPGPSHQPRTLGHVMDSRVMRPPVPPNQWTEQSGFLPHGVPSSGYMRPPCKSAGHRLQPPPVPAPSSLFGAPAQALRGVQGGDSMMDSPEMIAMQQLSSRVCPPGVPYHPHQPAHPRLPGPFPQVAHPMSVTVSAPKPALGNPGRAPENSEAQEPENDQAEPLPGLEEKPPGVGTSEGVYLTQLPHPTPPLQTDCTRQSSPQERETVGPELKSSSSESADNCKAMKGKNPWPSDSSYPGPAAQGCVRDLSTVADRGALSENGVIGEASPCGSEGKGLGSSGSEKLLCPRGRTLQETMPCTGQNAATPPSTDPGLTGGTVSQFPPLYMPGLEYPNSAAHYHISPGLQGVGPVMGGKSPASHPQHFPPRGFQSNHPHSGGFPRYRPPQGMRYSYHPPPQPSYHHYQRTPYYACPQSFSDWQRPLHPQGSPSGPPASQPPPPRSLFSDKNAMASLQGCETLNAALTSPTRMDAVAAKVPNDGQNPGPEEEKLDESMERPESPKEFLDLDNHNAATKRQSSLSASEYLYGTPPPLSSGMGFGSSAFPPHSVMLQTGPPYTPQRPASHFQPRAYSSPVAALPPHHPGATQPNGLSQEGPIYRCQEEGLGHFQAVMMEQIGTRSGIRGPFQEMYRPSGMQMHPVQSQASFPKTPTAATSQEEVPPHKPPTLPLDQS
Chain of Serine/threonine-protein kinase SIK2 (Homo sapiens) (Q9H0K1 whole entry, looked up): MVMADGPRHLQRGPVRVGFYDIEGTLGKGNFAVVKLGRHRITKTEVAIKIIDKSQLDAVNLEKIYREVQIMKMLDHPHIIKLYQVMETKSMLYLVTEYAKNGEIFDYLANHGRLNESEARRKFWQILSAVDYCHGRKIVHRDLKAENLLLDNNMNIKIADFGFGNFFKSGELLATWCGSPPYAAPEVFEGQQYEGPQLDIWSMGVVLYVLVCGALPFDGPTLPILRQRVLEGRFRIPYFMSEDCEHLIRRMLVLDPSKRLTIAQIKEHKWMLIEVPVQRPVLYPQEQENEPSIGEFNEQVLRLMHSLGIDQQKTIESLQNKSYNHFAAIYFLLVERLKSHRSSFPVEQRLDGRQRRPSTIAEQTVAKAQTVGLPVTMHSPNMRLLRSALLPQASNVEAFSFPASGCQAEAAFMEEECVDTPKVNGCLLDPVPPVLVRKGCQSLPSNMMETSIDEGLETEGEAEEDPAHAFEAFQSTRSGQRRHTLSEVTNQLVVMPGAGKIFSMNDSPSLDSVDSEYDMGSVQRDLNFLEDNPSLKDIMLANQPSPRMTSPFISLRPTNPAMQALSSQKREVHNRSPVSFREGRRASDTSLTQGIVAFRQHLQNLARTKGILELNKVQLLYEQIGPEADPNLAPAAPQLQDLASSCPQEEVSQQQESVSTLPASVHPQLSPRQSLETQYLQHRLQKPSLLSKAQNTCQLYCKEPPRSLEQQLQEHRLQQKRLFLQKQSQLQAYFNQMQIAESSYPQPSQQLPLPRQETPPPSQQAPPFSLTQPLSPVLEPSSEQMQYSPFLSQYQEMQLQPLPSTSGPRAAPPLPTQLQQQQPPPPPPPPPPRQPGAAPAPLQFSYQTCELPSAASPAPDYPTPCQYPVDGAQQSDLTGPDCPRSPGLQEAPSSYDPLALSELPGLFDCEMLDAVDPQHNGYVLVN
Chain of Cyclin-dependent kinase 5/CDK5 activator 1 (Homo sapiens) (Q00535 whole entry): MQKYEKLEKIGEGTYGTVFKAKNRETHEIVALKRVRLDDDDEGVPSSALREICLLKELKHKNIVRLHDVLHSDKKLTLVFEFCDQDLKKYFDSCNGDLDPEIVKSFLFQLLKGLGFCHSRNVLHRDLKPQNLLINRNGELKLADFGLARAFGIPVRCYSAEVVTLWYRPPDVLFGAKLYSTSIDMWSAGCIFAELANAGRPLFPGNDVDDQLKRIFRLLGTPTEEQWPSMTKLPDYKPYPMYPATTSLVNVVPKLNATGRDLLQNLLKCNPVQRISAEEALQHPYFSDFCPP
Chain of Cyclin-dependent kinase 5/CDK5 activator 1 (Homo sapiens) (Q15078 99-307 partner limits assumed): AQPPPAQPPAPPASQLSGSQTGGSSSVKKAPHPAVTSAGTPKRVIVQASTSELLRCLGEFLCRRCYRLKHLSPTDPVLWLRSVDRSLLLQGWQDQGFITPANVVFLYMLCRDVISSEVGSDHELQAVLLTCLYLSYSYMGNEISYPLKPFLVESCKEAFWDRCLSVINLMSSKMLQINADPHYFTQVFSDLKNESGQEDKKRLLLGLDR

With `C/C=C/Cn1cc(-c2ccc(C(C)(C)O)cc2OC)c2cc[nH]c2c1=O`, the IC50 worked out at 20 µM in the assay with EB-3; 17.8 µM in assay [1]; 20 µM with NCI-H1666; 20 µM in the assay on NCI-H1299; 20 µM in the assay on NCI-H2122; 20 µM in the assay on SU-DHL-1. The IC50 turned out to be 20 µM in the assay on AU565; 20 µM in the assay on LS-1034; 20 µM with GP5d; 19.9 µM in the assay with LNCaP; 20 µM in the assay on HCT-116; 20 µM with SNU-C1. Besides, the IC50 in the assay with HCC44 and in the assay with HCC827 was 20 µM throughout. For the same compound, the Kd in [2] and in [3] was more than 10 µM throughout. Besides, the results for the inhibition in [4], in assay [5] and in assay [6] were -0.5%, 0.5% and 6%, respectively. Further, the Activity in [7] turned out to be 1%.

`C/C=C/Cn1cc(-c2ccc(C(=O)N3CCOCC3)cc2)c2cc[nH]c2c1=O`: the IC50 in the assay with EB-3 worked out at 20 µM; in assay [1] it was 9.59 µM; in the assay on NCI-H1666, 19.5 µM; in the assay on NCI-H1299, 20 µM; in the assay with NCI-H2122, 20 µM; with SU-DHL-1, 20 µM. For the same compound, the IC50 with AU565 came to 20 µM; with LS-1034 it was 20 µM; in the assay on GP5d, 20 µM; in the assay with LNCaP, 16.5 µM; in the assay with HCT-116 it was 20 µM; in the assay with SNU-C1 it was 20 µM. Besides, the IC50 in the assay on HCC44 and with HCC827 was 20 µM in each case. For the same compound, the Kd in [2] is more than 10 µM; in [3], 3.8 µM. The inhibition is -1.5% in assay [4], 2.8% in assay [5] and 11.5% in [6]. Moreover, the Activity in assay [7] was -8%.

For `C/C=C/Cn1cc(-c2cc(OC)c(C(=O)N3CCOCC3)cc2OC)c2cc(C)[nH]c2c1=O`, the IC50 (in the assay with EB-3; in assay [1]; in the assay on NCI-H1666; in the assay with NCI-H1299; in the assay with NCI-H2122; in the assay on SU-DHL-1) was 2 µM each time. Moreover, the IC50 in the assay on AU565, with LS-1034, in the assay with GP5d, with LNCaP, with HCT-116 and in the assay with SNU-C1 was 2 µM in each case. Also, the IC50 in the assay with HCC44 and in the assay with HCC827 was 2 µM in each case. Further, the Kd in assay [2] is more than 10 µM; in [3] it was 3.6 µM. The inhibition in assay [4] was 0%; in assay [5] it was 1.5%; in assay [6], 5.5%. In assay [7], the Activity is -1%.

As to `C/C=C/Cn1cc(-c2cc(OC)c(C(C)(C)O)cc2OC)c2cc(C)[nH]c2c1=O`, the Kd in assay [2] and in [3] was more than 10 µM each time.

Values taken from ChEMBL document CHEMBL5260810, “Inhibition of bromodomain-containing protein 9 for the prevention of epigenetically-defined drug resistance” (Bioorg Med Chem Lett, 2017).
